According to article PMC7023430, “4-Aminobenzoic Acid Derivatives: Converting Folate Precursor to Antimicrobial and Cytotoxic Agents” (Biomolecules, 2019):
Values after ≈ are worked out from the molar mass of the structure shown. Read-outs that look alike come from different tables or passages of the source.

Tests used:
[1] = tested on: Staphylococcus aureus ATCC 29213, CCM 4223; experiment: Antibacterial microdilution broth method, S. aureus; assay type: cell-based
Candida tropicalis 156 = experiment: Antifungal microdilution broth method, C. tropicalis; assay type: cell-based
Method in brief: (§1)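 Panel covers five yeasts and three filamentous fungi tested by a slightly modified EUCAST microdilution protocol. Growth medium is glucose-supplemented (2%) RPMI-1640 with L-glutamine at pH 7.0 (MOPS). Endpoints are judged visually from duplicate runs.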

[2] = tested on: M. kansasii 6509/96 (clinical isolate); experiment: Antimycobacterial micromethod in Šula's medium, M. kansasii 6509/96; assay type: cell-based; conditions: Mycobacterium kansasii
Candida krusei E28 = experiment: Antifungal microdilution broth method, C. krusei; assay type: cell-based; conditions: Pichia kudriavzevii
Method in brief: as §1

[3] = tested on: ESBL-positive Klebsiella pneumoniae J 14368/08
[4] = tested on: Enterococcus faecalis ATCC 29212, CCM 4224; experiment: Antibacterial microdilution broth method, E. faecalis; assay type: cell-based; conditions: Enterococcus faecalis
[5] = tested on: Mycobacterium kansasii 235/80; experiment: Antimycobacterial micromethod in Šula's medium, M. kansasii 235/80; assay type: cell-based
Candida glabrata 20/I = experiment: Antifungal microdilution broth method, C. glabrata; assay type: cell-based; conditions: Nakaseomyces glabratus
Method in brief: as §1

[6] = tested on: Mycobacterium avium 330/88; experiment: Antimycobacterial micromethod in Šula's medium, M. avium; assay type: cell-based
[7] = tested on: Mycobacterium tuberculosis H37Rv (331/88); experiment: Antimycobacterial micromethod in Šula's medium, M. tuberculosis; assay type: cell-based
Trichosporon asahii 1188 = experiment: Antifungal microdilution broth method, T. asahii; assay type: cell-based
Method in brief: as §1

[8] = tested on: Trichophyton interdigitale 445; experiment: Antifungal microdilution broth method, T. interdigitale; assay type: cell-based
Method in brief: as §1

[9] = tested on: Escherichia coli ATCC 25922, CCM 3954; experiment: Antibacterial microdilution broth method, E. coli; assay type: cell-based; conditions: Escherichia coli
[10] = tested on: methicillin-resistant Staphylococcus aureus ATCC 43300, CCM 4750 (MRSA); experiment: Antibacterial microdilution broth method, MRSA; assay type: cell-based; conditions: Staphylococcus aureus
[11] = tested on: Candida albicans ATCC 44859; experiment: Antifungal microdilution broth method, C. albicans; assay type: cell-based
Method in brief: as §1

[12] = tested on: Klebsiella pneumoniae D 11750/08; experiment: Antibacterial microdilution broth method, K. pneumoniae; conditions: K. pneumoniae D 11750/08; for MIC KP 24 h: 24 h incubation; for MIC KP 48 h: 48 h incubation
[13] = tested on: Aspergillus fumigatus 231; experiment: Antifungal microdilution broth method, A. fumigatus; assay type: cell-based
Method in brief: as §1

[14] = tested on: Lichtheimia corymbifera 272; experiment: Antifungal microdilution broth method, L. corymbifera; assay type: cell-based
Method in brief: as §1

[15] = 24 h incubation, read-out: MIC SA 24 h
[16] = 48 h incubation, read-out: MIC SA 48 h
[17] = 168 h, 7 days incubation at 37 °C, read-out: MIC M. kansasii 6509/96 7 d
[18] = 336 h, 14 days incubation at 37 °C, read-out: MIC M. kansasii 6509/96 14 d
[19] = 504 h, 21 days incubation at 37 °C, read-out: MIC M. kansasii 6509/96 21 d
[20] = 24 h incubation, read-out: MIC EF 24 h
[21] = 48 h incubation, read-out: MIC EF 48 h
[22] = 235/80, 168 h, 7 days incubation at 37 °C, read-out: MIC M. kansasii 235/80 7 d
[23] = 235/80, 336 h, 14 days incubation at 37 °C, read-out: MIC M. kansasii 235/80 14 d
[24] = 235/80, 504 h, 21 days incubation at 37 °C, read-out: MIC M. kansasii 235/80 21 d
[25] = 330/88, 336 h, 14 days incubation at 37 °C, read-out: MIC M. avium 330/88 14 d
[26] = 330/88, 504 h, 21 days incubation at 37 °C, read-out: MIC M. avium 330/88 21 d
[27] = 336 h, 14 days incubation at 37 °C, read-out: MIC Mtb. 331/88 14 d
[28] = 504 h, 21 days incubation at 37 °C, read-out: MIC Mtb. 331/88 21 d
[29] = 24 h incubation, read-out: MIC EC 24 h
[30] = 48 h incubation, read-out: MIC EC 48 h
[31] = 24 h incubation, read-out: MIC MRSA 24 h
[32] = 48 h incubation, read-out: MIC MRSA 48 h
[33] = ATCC44859, 24 h, read-out: MIC CA 24 h
[34] = ATCC44859, 48 h, read-out: MIC CA 48 h

Row | Compound | MIC [1, 15] [µM] | MIC [1, 16] [µM] | MIC (Candida tropicalis 156; 24 h, read-out: MIC CT 24 h) [µM] | MIC (Candida tropicalis 156; 48 h, read-out: MIC CT 48 h) [µM] | MIC [2, 17] [µM] | MIC [2, 18] [µM] | MIC [2, 19] [µM] | MIC (Candida krusei E28; 24 h, read-out: MIC CK 24 h) [µM] | MIC (Candida krusei E28; 48 h, read-out: MIC CK 48 h) [µM] | MIC KP-E 24 h [3] [µM] | MIC KP-E 48 h [3] [µM] | MIC [4, 20] [µM] | MIC [4, 21] [µM] | MIC [5, 22] [µM] | MIC [5, 23] [µM] | MIC [5, 24] [µM] | MIC (Candida glabrata 20/I; 24 h, read-out: MIC CG 24 h) [µM] | MIC (Candida glabrata 20/I; 48 h, read-out: MIC CG 48 h) [µM] | MIC [6, 25] [µM] | MIC [6, 26] [µM] | also measured
1 | O=C(O)c1ccc(N=Cc2cc(I)cc(I)c2O)cc1 [1q, 4-[(2-Hydroxy-3,5-diiodobenzylidene)amino]benzoic acid] | 62.5 (≈ 30.8 µg/mL) | 62.5 (≈ 30.8 µg/mL) | 15.6 (≈ 7.7 µg/mL) | 15.6 (≈ 7.7 µg/mL) | 250 (≈ 123 µg/mL) | 250 (≈ 123 µg/mL) | 250 (≈ 123 µg/mL) | 31.2 (≈ 15.4 µg/mL) | 31.2 (≈ 15.4 µg/mL) | 500 (≈ 247 µg/mL) | 500 (≈ 247 µg/mL) | 500 (≈ 247 µg/mL) | 500 (≈ 247 µg/mL) | 250 (≈ 123 µg/mL) | 500 (≈ 247 µg/mL) | 500 (≈ 247 µg/mL) | 7.81 (≈ 3.85 µg/mL) | 7.81 (≈ 3.85 µg/mL) | 500 (≈ 247 µg/mL) | 500 (≈ 247 µg/mL) | MIC [7, 27]: 250 µM (≈ 123 µg/mL); MIC [7, 28]: 250 µM (≈ 123 µg/mL); MIC (Trichosporon asahii 1188; 24 h, read-out: MIC TA 24 h): 15.6 µM (≈ 7.7 µg/mL); MIC (Trichosporon asahii 1188; 48 h, read-out: MIC TA 48 h): 15.6 µM (≈ 7.7 µg/mL); MIC ([8]; 72 h, read-out: MIC TI 72 h): 7.81 µM (≈ 3.85 µg/mL); MIC ([8]; 120 h, read-out: MIC TI 120 h): 7.81 µM (≈ 3.85 µg/mL); MIC [9, 29]: 500 µM (≈ 247 µg/mL); MIC [9, 30]: 500 µM (≈ 247 µg/mL); MIC [10, 31]: 62.5 µM (≈ 30.8 µg/mL); MIC [10, 32]: 62.5 µM (≈ 30.8 µg/mL); MIC [11, 33]: 7.81 µM (≈ 3.85 µg/mL); MIC [11, 34]: 7.81 µM (≈ 3.85 µg/mL); MIC KP 24 h [12]: 500 µM (≈ 247 µg/mL); MIC KP 48 h [12]: 500 µM (≈ 247 µg/mL); MIC ([13]; 24 h, read-out: MIC AF 24 h): 125 µM (≈ 61.6 µg/mL); MIC ([13]; 48 h, read-out: MIC AF 48 h): 125 µM (≈ 61.6 µg/mL); MIC ([14]; 24 h, read-out: MIC LC 24 h): 250 µM (≈ 123 µg/mL); MIC ([14]; 48 h, read-out: MIC LC 48 h): 250 µM (≈ 123 µg/mL)
2 | O=C(O)c1ccc(N=Cc2ccc([N+](=O)[O-])o2)cc1 [1r, 4-{[(5-Nitrofuran-2-yl)methylene]amino}benzoic acid] | 62.5 (≈ 16.3 µg/mL) | 62.5 (≈ 16.3 µg/mL) | 250 (≈ 65.1 µg/mL) | 250 (≈ 65.1 µg/mL) | 125 (≈ 32.5 µg/mL) | 125 (≈ 32.5 µg/mL) | 250 (≈ 65.1 µg/mL) | 62.5 (≈ 16.3 µg/mL) | 62.5 (≈ 16.3 µg/mL) | 500 (≈ 130 µg/mL) | 500 (≈ 130 µg/mL) | > 500 | > 500 | 62.5 (≈ 16.3 µg/mL) | 125 (≈ 32.5 µg/mL) | 250 (≈ 65.1 µg/mL) | 250 (≈ 65.1 µg/mL) | 250 (≈ 65.1 µg/mL) | 250 (≈ 65.1 µg/mL) | 500 (≈ 130 µg/mL) | MIC [7, 27]: 62.5 µM (≈ 16.3 µg/mL); MIC [7, 28]: 125 µM (≈ 32.5 µg/mL); MIC (Trichosporon asahii 1188; 24 h, read-out: MIC TA 24 h): 500 µM (≈ 130 µg/mL); MIC (Trichosporon asahii 1188; 48 h, read-out: MIC TA 48 h): 500 µM (≈ 130 µg/mL); MIC ([8]; 72 h, read-out: MIC TI 72 h): 250 µM (≈ 65.1 µg/mL); MIC ([8]; 120 h, read-out: MIC TI 120 h): 250 µM (≈ 65.1 µg/mL); MIC [9, 29]: > 500 µM; MIC [9, 30]: > 500 µM; MIC [10, 31]: 62.5 µM (≈ 16.3 µg/mL); MIC [10, 32]: 62.5 µM (≈ 16.3 µg/mL); MIC [11, 33]: 250 µM (≈ 65.1 µg/mL); MIC [11, 34]: 250 µM (≈ 65.1 µg/mL); MIC KP 24 h [12]: 500 µM (≈ 130 µg/mL); MIC KP 48 h [12]: 500 µM (≈ 130 µg/mL); MIC ([13]; 24 h, read-out: MIC AF 24 h): > 500 µM; MIC ([13]; 48 h, read-out: MIC AF 48 h): > 500 µM; MIC ([14]; 24 h, read-out: MIC LC 24 h): > 500 µM; MIC ([14]; 48 h, read-out: MIC LC 48 h): > 500 µM
3 | O=C(O)c1ccc(NCc2ccccc2O)cc1 [1u, 4-[(2-Hydroxybenzyl)amino]benzoic acid] | > 500 | > 500 | > 500 | > 500 | 1000 (≈ 243 µg/mL) | 1000 (≈ 243 µg/mL) | 1000 (≈ 243 µg/mL) | > 500 | > 500 | >500 | >500 | > 500 | > 500 | 1000 (≈ 243 µg/mL) | 1000 (≈ 243 µg/mL) | 1000 (≈ 243 µg/mL) | > 500 | > 500 | > 1000 | > 1000 | MIC [7, 27]: 1000 µM (≈ 243 µg/mL); MIC [7, 28]: 1000 µM (≈ 243 µg/mL); MIC (Trichosporon asahii 1188; 24 h, read-out: MIC TA 24 h): > 500 µM; MIC (Trichosporon asahii 1188; 48 h, read-out: MIC TA 48 h): > 500 µM; MIC ([8]; 72 h, read-out: MIC TI 72 h): > 500 µM; MIC ([8]; 120 h, read-out: MIC TI 120 h): > 500 µM; MIC [9, 29]: > 500 µM; MIC [9, 30]: > 500 µM; MIC [10, 31]: > 500 µM; MIC [10, 32]: > 500 µM; MIC [11, 33]: > 500 µM; MIC [11, 34]: > 500 µM; MIC KP 24 h [12]: >500 µM; MIC KP 48 h [12]: >500 µM; MIC ([13]; 24 h, read-out: MIC AF 24 h): > 500 µM; MIC ([13]; 48 h, read-out: MIC AF 48 h): > 500 µM; MIC ([14]; 24 h, read-out: MIC LC 24 h): > 500 µM; MIC ([14]; 48 h, read-out: MIC LC 48 h): > 500 µM
